Patent US9718817B2, “Aryl and heteroaryl ether compounds as ROR gamma modulators” (Glenmark Pharmaceuticals S.A., priority 2014, dated 2017)

Biological target: T1, GST-tagged ROR gamma ligand binding domain (LBD) (Homo sapiens, UniProt P51449)
T1 construct: purchased Invitrogen
T1 sequence (P51449 269-508 limits assumed): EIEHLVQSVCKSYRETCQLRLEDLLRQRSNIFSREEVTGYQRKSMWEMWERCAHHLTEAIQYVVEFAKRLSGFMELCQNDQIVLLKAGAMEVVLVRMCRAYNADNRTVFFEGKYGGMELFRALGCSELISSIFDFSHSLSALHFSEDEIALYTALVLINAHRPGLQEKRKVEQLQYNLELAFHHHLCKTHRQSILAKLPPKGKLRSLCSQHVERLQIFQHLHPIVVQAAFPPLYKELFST
Assay: TR-FRET assay for ROR gamma (LanthaScreen co-activator peptide recruitment)
Assay type: biochemical
Conditions: for IC50: class symbols, from dose response curve; for inhibition at 1 µM: compound 1 μM; for inhibition at 1 µM / inhibition at 10 µM: TR-FRET ratio 520/495, percent of control; for inhibition at 10 µM: compound 10 μM
Summary of the method: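 Antagonist mode: 10 nM GST-RORγ LBD pre-incubated with compound 1 h at 22 °C in 25 mM HEPES pH 7.4, 100 mM NaCl, 5 mM DTT, 0.01% BSA, 4% DMSO final. Then 300 nM fluorescein-D22 co-activator peptide plus 10 nM Tb-anti-GST added, 1 h at room temperature. IC50 by nonlinear regression of the 520/495 TR-FRET ratio as percent of no-compound control.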

CCS(=O)(=O)c1ccc(CC(=O)Nc2ccc(OC3(c4ccc(Cl)cc4Cl)CCC3)c(F)c2)cc1 [Example 139, N-(4-((1-(2,4-Dichlorophenyl)cyclobutyl)oxy)-3-fluorophenyl)-2-(4-(ethylsulfonyl)phenyl)acetamide]
IC50: < 50 nM
inhibition at 1 µM: 86.3%
inhibition at 10 µM: 82.6%

CCS(=O)(=O)c1ccc(CC(=O)Nc2ccc(OC3(c4ccc(F)cc4F)CCCCC3)c(F)c2)cc1 [Example 140, N-(4-((1-(2,4-Difluorophenyl)cyclohexyl)oxy)-3-fluorophenyl)-2-(4-(ethylsulfonyl)phenyl)acetamide]
IC50: < 50 nM
inhibition at 1 µM: 69.1%
inhibition at 10 µM: 72.8%

CCS(=O)(=O)c1ccc(CC(=O)Nc2ccc(OC3(c4ccc(F)cc4F)CCC3)c(F)c2)cc1 [Example 141, N-(4-(1-(2,4-Difluorophenyl)cyclobutoxy)-3-fluorophenyl)-2-(4-(ethylsulfonyl)phenyl)acetamide]
IC50: < 50 nM
inhibition at 1 µM: 81.4%
inhibition at 10 µM: 75.2%

CCS(=O)(=O)c1ccc(CC(=O)Nc2ccc(OC3(c4ccc(F)cc4F)COC3)c(F)c2)cc1 [Example 142, N-(4-((3-(2,4-Difluorophenyl)oxetan-3-yl)oxy)-3-fluorophenyl)-2-(4-(ethylsulfonyl)phenyl)acetamide]
IC50: < 50 nM
inhibition at 1 µM: 81.1%
inhibition at 10 µM: 81.5%

CCn1c(C(C)(C)Oc2ccc(Cl)cc2Cl)nc2cc(NC(=O)Cc3ccc(S(=O)(=O)CC)cc3)ccc21 [Example 144, N-(2-(2-(2,4-Dichlorophenoxy)propan-2-yl)-1-ethyl-1H-benzo[d]imidazol-5-yl)-2-(4-(ethylsulfonyl)phenyl)acetamide]
IC50: < 50 nM
inhibition at 1 µM: 90.6%
inhibition at 10 µM: 92.5%

CCS(=O)(=O)c1ccc(CC(=O)Nc2ccc3c(c2)nc(C(C)(C)Oc2ccc(F)cc2F)n3CCF)cc1 [Example 145, N-(2-(2-(2,4-Difluorophenoxy)propan-2-yl)-1-(2-fluoroethyl)-1H-benzo[d]imidazol-5-yl)-2-(4-(ethylsulfonyl)phenyl)acetamide]
IC50: < 50 nM
inhibition at 1 µM: 79.7%
inhibition at 10 µM: 85.8%
